The source of these data is paper PMC5556071, “ATR inhibition facilitates targeting of leukemia dependence on convergent nucleotide biosynthetic pathways” (Nature Communications, 2017).

Series [1] is described as follows: Plasma pharmacokinetics after single dose oral co-administration. In kind it is in vivo, C57BL/6 mice. Here is the method:
3-AP, dCKi, VE-822 plasma concentrations were assessed at 0.5, 1, 2, 4, 6, 12 and 24 h following oral administration. Blood samples were collected in heparin-EDTA tubes by the retro-orbital technique and spun down to collect the supernatants. Four parts of methanol were added to plasma samples to precipitate proteins, and the supernatant was collected. Twenty microliter samples were injected onto a reverse phase column equilibrated in water 0.1% formic acid for LC-MS/MS-MRM analysis in positive ion mode. Plasma concentrations were determined by comparison to previously generated standard curves. A population pharmacokinetic modeling (NONMEM v. 7.2) with first-order conditional estimation (FOCE) was used to characterize the Cmax, half-life, and area under the curve (AUC) for 3-AP, dCKi, and VE-822. 3-AP and VE-822 were best described with a one compartment model while dCKi was best described by a two-compartment model. All three drugs were well described with first order absorption and a proportional error model. Clearance and volume were scaled by weight. […]
Plasma collection and pharmacokinetic assays. Blood was collected in heparin-EDTA tubes by retro-orbital technique at time points 0.25, 1, 6, and 24 h time points from the first set of mice and 0.5, 4, and 12 h from the second set of mice. Blood samples were spun at 2000 x g for 15 min and the plasma supernatants were collected. All plasma samples were frozen down at –20 °C before sample processing. The stock solutions of 3-AP, VE-822, DI-82, 3-AP analog (NSC 266749), VE-821 (Selleckchem), DI-39 were prepared individually by dissolving the appropriate amount of each drug in a known volume of dimethyl sulfoxide (DMSO) to a 10 mM concentration and were stored at –20 °C before use. The 3-AP analog, VE-821 and DI-39 (internal standards) were diluted to 200 nM in methanol to make the internal solution. The calibration standards were prepared by spiking working stock solutions of 3-AP, VE-822 and DI-82 in plasma from untreated mice to give 0.01-10 pmol/µL range. Each 20 µL calibration standard sample was mixed with 60 µL of internal solution (methanol with 200 nM internal standards) and vortexed for 30 s. Following centrifugation at 15,000 x g for 10 min, approximately 60 µL of sample was carefully transferred into HPLC injector vials for LC-MS/MS-MRM analysis.
Plasma samples were processed the same way as the calibration standard samples. 20 μL samples were injected onto a reverse phase column, (Thermo Scientific Hypersil GOLD column 3.0 µm; 2.1 x 100 mm) equilibrated in water/formic acid, 100/0.1, and eluted (200 μL/min) with an increasing concentration of solvent […]
The effluent from the column was directed to the Agilent Jet Stream ion source connected to the triple quadrupole mass spectrometer (Agilent 6460) operating in the multiple reaction monitoring (MRM) mode using previously optimized settings. The following drug precursor→fragment ion transitions were used: 3-AP

Another series concerns CEM cells. Description: Phospho-histone 3 (H3 pS10) staining, flow cytometry. In kind it is cell-based, human. Conditions: 500 nM 3-AP, 1 µM VE-822, 1 µM dCKi, 24 h. Here is the method: Phospho-histone 3 staining. Cells were treated with drug combinations of three drugs. 24 h following treatment, cells were fixed and permeabilized with 1% PFA and 1X Perm/wash solution respectively.
Following fixation and permeabilization, cells were stained intracellularly with pH3 Ser10 antibody conjugated to AF647 (Cell signaling, #12230). Cells were then washed with PBS, stained with 0.5 mL of DAPI for DNA content (1 µg/mL in 2% FBS in PBS) before data acquisition. […]
FACS analysis. All flow cytometry data were acquired on five-laser LSRII cytometers (BD) for analysis, and analyzed using FlowJo software (Tree Star). The cell cycle durations were calculated using equations for multiple time-point measurements according to previously published methods (Terry and White, 2006).
(In general: A flow cytometer gives signals particle by particle.)

Series [2] has as its system dasatinib-resistant p185BCR-ABL Arf–/– pre-B-ALL cells. Put plainly: Apoptosis assay, Annexin V and PI staining. In kind it is cell-based, mouse. Conditions: 350 nM 3-AP, 100 nM VE-822, 1 µM dCKi, 72 h. As for the experimental part:
Apoptosis and cell death were assayed using Annexin V-FITC and PI according to manufacturer’s instructions (FITC Annexin V Apoptosis Detection Kit, BD Sciences, #556570). […]
Annexin V staining. Cells were treated with the indicated treatments for 24 or 72 h, then collected and washed twice with 1 mL of FACS buffer (2% FBS in PBS). Induction of apoptosis and cell death were assayed by staining the cells with Annexin V-FITC and PI according to manufacturer’s instructions (FITC Annexin V Apoptosis Detection Kit, BD Sciences, #556570).
FACS analysis. All flow cytometry data were acquired on five-laser LSRII cytometers (BD) for analysis, and analyzed using FlowJo software (Tree Star). […]

[3] abbreviates: 3-AP 15, VE-822 40, dCKi 50 mg kg−1.
[4] abbreviates: cells harvested from bone marrow of a treated leukemic mouse.
Setting [5] is: cells prior to inoculation in mice.
Where [6] appears, read: C57BL/6, mouse, 40 mg/kg, 3-AP 15, VE-822 40, dCKi 50 mg kg−1.

Where two headings read alike, the source gives them in different places.

Consider `NC(=S)N/N=C/c1ncccc1N` [3-AP], for which, in series [1] (setting [3]), the AUC was 9.2 ± 1.8 µM·h, the Cmax turned out to be 2300 ± 700 nM and the t1/2 is 3.3 ± 1.0 h. Besides, the “H3 pS10 plot, upper percentage (gate not given)” value with CEM cells worked out at 1.8%. For the same compound, in series [2] (setting [4]), the “Annexin V+ cells (apoptosis induction)” value turned out to be 22.0%. Further, the “Annexin V+ cells (apoptosis induction)” value in series [2] (setting [5]) is listed as 32.6%.

Take `CNCc1ccc(-c2cc(-c3nc(-c4ccc(S(=O)(=O)C(C)C)cc4)cnc3N)on2)cc1` [VE-822]: in series [1] (setting [6]), the Cmax was 1800 ± 200 nM and the half-life is 17 ± 1 h. Besides, the area under the curve (AUC) in series [1] (C57BL/6, mouse, 40 mg/kg, 3-AP 15, VE-822 40, dCKi 50 mg kg−1, read-out: AUC) came to 55 ± 2 µM·h. The “H3 pS10 plot, upper percentage (gate not given)” value with CEM cells was 6.5%. In addition, the “Annexin V+ cells (apoptosis induction)” value in series [2] (setting [4]) stood at 12.9%. Moreover, the “Annexin V+ cells (apoptosis induction)” value in series [2] (setting [5]) is reported as 20.7%.

For `COc1ccc(-c2nc([C@@H](C)Sc3nc(N)cc(N)n3)c(C)s2)cc1OCCNS(C)(=O)=O` [dCKi], in series [1] (setting [3]), the exposure (AUC) turned out to be 63 ± 4 µM·h, the Cmax came out at 6400 ± 700 nM and the t1/2 worked out at 8.5 ± 3.0 h. In the series with CEM cells, the “H3 pS10 plot, upper percentage (gate not given)” value stood at 2.4%. Besides, the “Annexin V+ cells (apoptosis induction)” value in series [2] (setting [4]) is recorded as 11.0%. Further, the “Annexin V+ cells (apoptosis induction)” value in series [2] (setting [5]) is recorded as 20.4%.

Usually AUC stands for concentration integrated over time. What is called Cmax is the maximum level reached in the sampled fluid or tissue. As usually defined, the half-life is the time needed for the level to fall by half in the phase considered.
